± gives the expanded uncertainty stated by the source.
Experiment: xn = mol fraction of the nth substance listed
Conditions: Liquid, Vibrating tube method

CC(C)=O [acetone] + CCCCCCC
Conditions | mass density [kg/m3]
397.28 K, 64890 kPa, x1 = 0.7024 | 708.2 ± 1.4
397.28 K, 69880 kPa, x1 = 0.7024 | 712.51 ± 1.5
397.28 K, 74860 kPa, x1 = 0.7024 | 716.61 ± 1.5
397.28 K, 74910 kPa, x1 = 0.492 | 698.27 ± 1.5
397.28 K, 74910 kPa, x1 = 0.801 | 727.94 ± 1.5
397.28 K, 74920 kPa, x1 = 0.611 | 707.37 ± 1.5
397.28 K, 79830 kPa, x1 = 0.7024 | 720.53 ± 1.5
397.28 K, 79900 kPa, x1 = 0.492 | 702.07 ± 1.6
397.28 K, 84840 kPa, x1 = 0.7024 | 724.33 ± 1.5
397.28 K, 84890 kPa, x1 = 0.492 | 705.69 ± 1.6
397.28 K, 89820 kPa, x1 = 0.7024 | 727.97 ± 1.6
397.28 K, 94800 kPa, x1 = 0.7024 | 731.49 ± 1.6
397.28 K, 94850 kPa, x1 = 0.492 | 712.56 ± 1.6
397.28 K, 99780 kPa, x1 = 0.7024 | 734.88 ± 1.6
397.28 K, 99820 kPa, x1 = 0.801 | 746.56 ± 1.6
397.28 K, 104760 kPa, x1 = 0.7024 | 738.15 ± 1.6
397.28 K, 109780 kPa, x1 = 0.801 | 753.14 ± 1.6
397.28 K, 114820 kPa, x1 = 0.7024 | 744.47 ± 1.7
397.28 K, 114850 kPa, x1 = 0.492 | 725.01 ± 1.7
397.28 K, 114850 kPa, x1 = 0.801 | 756.36 ± 1.6
397.28 K, 114870 kPa, x1 = 0.611 | 734.74 ± 1.7
397.28 K, 119800 kPa, x1 = 0.7024 | 747.44 ± 1.7
397.28 K, 119860 kPa, x1 = 0.611 | 737.69 ± 1.7
397.28 K, 124830 kPa, x1 = 0.7024 | 750.39 ± 1.7
397.28 K, 124840 kPa, x1 = 0.492 | 730.68 ± 1.8
397.28 K, 124840 kPa, x1 = 0.801 | 762.38 ± 1.7
397.28 K, 124860 kPa, x1 = 0.611 | 740.54 ± 1.8
397.28 K, 129790 kPa, x1 = 0.7024 | 753.19 ± 1.7
397.28 K, 129840 kPa, x1 = 0.492 | 733.39 ± 1.8
397.28 K, 129840 kPa, x1 = 0.611 | 743.3 ± 1.8
397.29 K, 19850 kPa, x1 = 0.492 | 638.92 ± 1.3
397.29 K, 24860 kPa, x1 = 0.492 | 646.54 ± 1.3
397.29 K, 39850 kPa, x1 = 0.492 | 665.68 ± 1.4
397.29 K, 49840 kPa, x1 = 0.492 | 676.28 ± 1.4
397.29 K, 69930 kPa, x1 = 0.492 | 694.29 ± 1.5
397.29 K, 89860 kPa, x1 = 0.492 | 709.18 ± 1.6
397.29 K, 99830 kPa, x1 = 0.492 | 715.82 ± 1.6
397.29 K, 104800 kPa, x1 = 0.492 | 718.94 ± 1.7
397.29 K, 109740 kPa, x1 = 0.7024 | 741.31 ± 1.6
397.29 K, 109770 kPa, x1 = 0.492 | 722 ± 1.7
397.29 K, 119840 kPa, x1 = 0.492 | 727.87 ± 1.8
407.2 K, 1850 kPa, x1 = 0.4 | 626.34 ± 1.2
407.2 K, 1850 kPa, x1 = 0.8992 | 626.34 ± 1.2
407.2 K, 5000 kPa, x1 = 0.4 | 635.78 ± 1.2
407.2 K, 5000 kPa, x1 = 0.8992 | 635.78 ± 1.2
407.2 K, 10000 kPa, x1 = 0.4 | 648.49 ± 1.2
407.2 K, 10000 kPa, x1 = 0.8992 | 648.49 ± 1.2
407.2 K, 14980 kPa, x1 = 0.4 | 659.29 ± 1.3
407.2 K, 14980 kPa, x1 = 0.8992 | 659.29 ± 1.2
407.2 K, 49890 kPa, x1 = 0.4 | 710.54 ± 1.4
407.2 K, 49890 kPa, x1 = 0.8992 | 710.54 ± 1.4
407.21 K, 1650 kPa, x1 = 0.611 | 594.88 ± 1.2
407.21 K, 1660 kPa, x1 = 0.801 | 612.07 ± 1.2
407.21 K, 4870 kPa, x1 = 0.611 | 604.63 ± 1.2
407.21 K, 4870 kPa, x1 = 0.801 | 621.91 ± 1.2
407.21 K, 9870 kPa, x1 = 0.611 | 617.29 ± 1.2
407.21 K, 14860 kPa, x1 = 0.801 | 645.72 ± 1.2
407.21 K, 14880 kPa, x1 = 0.611 | 627.98 ± 1.2
407.21 K, 19850 kPa, x1 = 0.801 | 655.22 ± 1.3
407.21 K, 19960 kPa, x1 = 0.4 | 668.77 ± 1.3
407.21 K, 19960 kPa, x1 = 0.8992 | 668.77 ± 1.3
407.21 K, 24940 kPa, x1 = 0.4 | 677.3 ± 1.3
407.21 K, 24940 kPa, x1 = 0.8992 | 677.3 ± 1.3
407.21 K, 29940 kPa, x1 = 0.4 | 685.05 ± 1.3
407.21 K, 29940 kPa, x1 = 0.8992 | 685.05 ± 1.3
407.21 K, 34930 kPa, x1 = 0.4 | 692.12 ± 1.3
407.21 K, 34930 kPa, x1 = 0.8992 | 692.12 ± 1.3
407.21 K, 39920 kPa, x1 = 0.4 | 698.68 ± 1.4
407.21 K, 39920 kPa, x1 = 0.8992 | 698.68 ± 1.3
407.21 K, 44900 kPa, x1 = 0.4 | 704.79 ± 1.4
407.21 K, 44900 kPa, x1 = 0.8992 | 704.79 ± 1.4
407.21 K, 54880 kPa, x1 = 0.4 | 715.92 ± 1.4
407.21 K, 54880 kPa, x1 = 0.8992 | 715.92 ± 1.4
407.21 K, 59880 kPa, x1 = 0.4 | 721.06 ± 1.4
407.21 K, 59880 kPa, x1 = 0.8992 | 721.06 ± 1.4
407.21 K, 64860 kPa, x1 = 0.4 | 725.91 ± 1.4
407.21 K, 64860 kPa, x1 = 0.8992 | 725.91 ± 1.4
407.21 K, 69840 kPa, x1 = 0.4 | 730.52 ± 1.5
407.21 K, 69840 kPa, x1 = 0.8992 | 730.52 ± 1.4
407.21 K, 74830 kPa, x1 = 0.4 | 734.95 ± 1.5
407.21 K, 74830 kPa, x1 = 0.8992 | 734.95 ± 1.5
407.21 K, 79810 kPa, x1 = 0.4 | 739.19 ± 1.5
407.21 K, 79810 kPa, x1 = 0.8992 | 739.19 ± 1.5
407.21 K, 84790 kPa, x1 = 0.4 | 743.24 ± 1.5
407.21 K, 84790 kPa, x1 = 0.8992 | 743.24 ± 1.5
407.21 K, 89780 kPa, x1 = 0.4 | 747.17 ± 1.5
407.21 K, 89780 kPa, x1 = 0.8992 | 747.17 ± 1.5
407.22 K, 1650 kPa, x1 = 0.492 | 588.49 ± 1.2
407.22 K, 4850 kPa, x1 = 0.492 | 597.92 ± 1.2
407.22 K, 9860 kPa, x1 = 0.801 | 634.81 ± 1.2
407.22 K, 19860 kPa, x1 = 0.611 | 637.25 ± 1.3

From the NIST ThermoML archive (doi:10.1016/j.fluid.2010.10.028)
